Assay results as given in the supplement of paper PMC10627819.

Tests used:
S. pneumoniae D39V [1] = assay: fitness (endpoint OD595 vs no drug) (fraction); higher = more growth; details: main component drawn
How it was run: (§1)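 Fitness compares growth at the stationary-phase transition with the robust mean of no-drug control wells, as a ratio of optical densities. The ratio is capped at 1. Wells of 384-well plates held 30 µl, or 55 µl for S. pneumoniae, inoculated at OD595 0.01. Readings at OD595 every 30 min for 14 h at 37 °C were corrected against the first reading.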

B. subtilis 168 [2] = assay: as above; details: one replicate, main component drawn
How it was run: as §1

S. pneumoniae D39V [3] = assay: Bliss interaction score (quartile over a dose matrix) (fitness difference); higher = more antagonism (negative = synergy); details: main component drawn
How it was run: (§2)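 Fitness here means normalised growth, inferred for single drugs from the combination data. Growth was OD595 at entry into stationary phase, divided by the plate's robust no-drug mean and capped at 1. The Bliss score is observed minus expected fitness, with the expectation being the product, and its quartiles span technical, biological and donor/recipient replicates.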

S. aureus DSM 20231 = assay: as above; details: main component drawn
How it was run: as §2

B. subtilis 168 [4] = assay: as above; details: main component drawn
How it was run: as §2

S. aureus Newman = assay: as above; details: main component drawn
How it was run: as §2
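Throughout, for Bliss interaction score (quartile over a dose matrix): first quartile when negative (synergy) and third quartile when positive (antagonism).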
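Throughout, for fitness (endpoint OD595 vs no drug): OD595 on entry to stationary phase over no-drug wells; at most 1.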

CN(C)C(=O)C(CCN1CCC(O)(c2ccc(Cl)cc2)CC1)(c1ccccc1)c1ccccc1 [Loperamide] + CCC(C)C1C(=O)NC(=C)C(=O)NC(C(=O)NC(CSCC(C(=O)N1)NC(=O)/C(=C/C)/NC(=O)C(C(C)CC)N)C(=O)NC2C(SCC(NC(=O)CNC(=O)C3CCCN3C2=O)C(=O)NC(CCCCN)C(=O)NC4C(SCC(NC(=O)CNC(=O)C(NC(=O)C(NC(=O)C(NC(=O)CNC4=O)C)CC(C)C)CCSC)C(=O)NC(CC(=O)N)C(=O)NC(CCSC)C(=O)NC(CCCCN)C(=O)NC5C(SCC6C(=O)NC(C(=O)NC(CSC(C(C(=O)N6)NC(=O)C(NC5=O)C)C)C(=O)NC(CO)C(=O)NC(C(C)CC)C(=O)NC(CC7=CN=CN7)C(=O)NC(C(C)C)C(=O)NC(=C)C(=O)NC(CCCCN)C(=O)O)CC8=CN=CN8)C)C)C)CC(C)C [Nisin]
Details	fitness
B. subtilis 168 [2], first compound 25 µg/mL, partner 0.5 µg/mL	0.435
B. subtilis 168 [2], first compound 25 µg/mL, partner 1 µg/mL	0.11
B. subtilis 168 [2], first compound 25 µg/mL, partner 1.25 µg/mL	0.204
B. subtilis 168 [2], first compound 25 µg/mL, partner 1.6 µg/mL	0.1
B. subtilis 168 [2], first compound 25 µg/mL, partner 2 µg/mL	0.088
B. subtilis 168 [2], first compound 25 µg/mL, partner 2.5 µg/mL	0.0567
B. subtilis 168 [2], first compound 25 µg/mL, partner 3.2 µg/mL	0.0289
B. subtilis 168 [2], first compound 25 µg/mL, partner 4 µg/mL	0.0315
B. subtilis 168 [2], first compound 25 µg/mL, partner 5 µg/mL	0.0493
B. subtilis 168 [2], first compound 25 µg/mL, partner 6.4 µg/mL	0.035
B. subtilis 168 [2], first compound 25 µg/mL, partner 8 µg/mL	0.0084
B. subtilis 168 [2], first compound 25 µg/mL, partner 16 µg/mL	0.0263
B. subtilis 168 [2], first compound 50 µg/mL, partner 0.5 µg/mL	0.0779
B. subtilis 168 [2], first compound 50 µg/mL, partner 1 µg/mL	0.0703
B. subtilis 168 [2], first compound 50 µg/mL, partner 1.25 µg/mL	0.0476
B. subtilis 168 [2], first compound 50 µg/mL, partner 1.6 µg/mL	0.0166
B. subtilis 168 [2], first compound 50 µg/mL, partner 2 µg/mL	0.0708
B. subtilis 168 [2], first compound 50 µg/mL, partner 2.5 µg/mL	0.0575
B. subtilis 168 [2], first compound 50 µg/mL, partner 3.2 µg/mL	0.0291
B. subtilis 168 [2], first compound 50 µg/mL, partner 4 µg/mL	0.0232
B. subtilis 168 [2], first compound 50 µg/mL, partner 5 µg/mL	0.0332
B. subtilis 168 [2], first compound 50 µg/mL, partner 6.4 µg/mL	0.0454
B. subtilis 168 [2], first compound 50 µg/mL, partner 8 µg/mL	0.0257
B. subtilis 168 [2], first compound 50 µg/mL, partner 16 µg/mL	0.037
B. subtilis 168 [2], first compound 100 µg/mL, partner 0.5 µg/mL	0.108
B. subtilis 168 [2], first compound 100 µg/mL, partner 1 µg/mL	0.0347
B. subtilis 168 [2], first compound 100 µg/mL, partner 1.25 µg/mL	0.0457
B. subtilis 168 [2], first compound 100 µg/mL, partner 1.6 µg/mL	0.0155
B. subtilis 168 [2], first compound 100 µg/mL, partner 2 µg/mL	0.0438
B. subtilis 168 [2], first compound 100 µg/mL, partner 2.5 µg/mL	0.0577
B. subtilis 168 [2], first compound 100 µg/mL, partner 3.2 µg/mL	0.0362
B. subtilis 168 [2], first compound 100 µg/mL, partner 4 µg/mL	0.0127
B. subtilis 168 [2], first compound 100 µg/mL, partner 5 µg/mL	0.0475
B. subtilis 168 [2], first compound 100 µg/mL, partner 6.4 µg/mL	0.077
B. subtilis 168 [2], first compound 100 µg/mL, partner 8 µg/mL	0.0094
B. subtilis 168 [2], first compound 100 µg/mL, partner 16 µg/mL	0.0142
S. pneumoniae D39V [1], first compound 17.14 µg/mL, partner 1.6 µg/mL	0.0272
S. pneumoniae D39V [1], first compound 17.14 µg/mL, partner 3.2 µg/mL	0.0109
S. pneumoniae D39V [1], first compound 17.14 µg/mL, partner 6.4 µg/mL	0.0062
S. pneumoniae D39V [1], first compound 20 µg/mL, partner 0.4275 µg/mL	0.827
S. pneumoniae D39V [1], first compound 20 µg/mL, partner 1.71 µg/mL	0.063
S. pneumoniae D39V [1], first compound 34.28 µg/mL, partner 1.6 µg/mL	0.0162
S. pneumoniae D39V [1], first compound 34.28 µg/mL, partner 3.2 µg/mL	0
S. pneumoniae D39V [1], first compound 34.28 µg/mL, partner 6.4 µg/mL	0.0091
S. pneumoniae D39V [1], first compound 40 µg/mL, partner 0.4275 µg/mL	0.145
S. pneumoniae D39V [1], first compound 40 µg/mL, partner 0.855 µg/mL	0.0969
S. pneumoniae D39V [1], first compound 40 µg/mL, partner 1.71 µg/mL	0.0997
S. pneumoniae D39V [1], first compound 80 µg/mL, partner 0.4275 µg/mL	0.0928
S. pneumoniae D39V [1], first compound 80 µg/mL, partner 0.855 µg/mL	0.073
S. pneumoniae D39V [1], first compound 80 µg/mL, partner 1.71 µg/mL	0.102

S. pneumoniae D39V [1], first compound 68.57 µg/mL, one replicate
Details	fitness
partner 1.6 µg/mL	0.001
partner 3.2 µg/mL	0
partner 6.4 µg/mL	0

Details	Bliss interaction score
B. subtilis 168 [4]	-0.126
S. aureus DSM 20231	-0.423
S. aureus Newman	-0.076
S. pneumoniae D39V [3]	-0.175
